Each structure is given as a SMILES string.

The values below come from patent publication EP4635565A1, “PRENYLATED TETRAHYDROQUINOLINES AND QUINOLINES WITH PPAR AGONIST ACTIVITY” (Fundación para la Investigación del Hospital Clínico de la …, priority 2024, dated 2025).

For one data set, the target named is T1, hPPARα (Homo sapiens, UniProt Q07869).
T1 sequence (Q07869 167-468): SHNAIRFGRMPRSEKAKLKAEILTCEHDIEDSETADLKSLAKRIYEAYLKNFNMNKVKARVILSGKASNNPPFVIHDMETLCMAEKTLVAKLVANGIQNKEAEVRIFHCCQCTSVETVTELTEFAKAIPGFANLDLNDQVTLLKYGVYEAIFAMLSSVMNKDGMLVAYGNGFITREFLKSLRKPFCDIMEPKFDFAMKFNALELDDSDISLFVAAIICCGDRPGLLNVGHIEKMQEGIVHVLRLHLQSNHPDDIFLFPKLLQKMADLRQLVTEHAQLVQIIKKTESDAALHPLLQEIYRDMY
Put plainly: PPAR transactivation assay, human chimeric PPAR/Gal4 reporter luciferase system in Cos-7 cells (PPARα). The data set is classed as cell-based. The procedure: Transfections were stopped after 16 h by adding DMEM/10% FCS. Cells were detached with trypsin, re-seeded in 96-well plates for 6 h in DMEM/10% FCS, and incubated for 24 h in DMEM/0.2% FCS with increasing concentrations of the test compounds or vehicle (DMSO, 0.1% final concentration). At the end of the experiment, cells were washed once with ice-cold PBS, lysed, and luciferase and β-galactosidase activities were measured. Luciferase activity was normalised to that of the internal control, β-galactosidase. All transfection experiments were performed at least five times.
EC50 values against human PPARα/Gal4, PPARβ/δ/Gal4 and PPARγ/Gal4 receptors.

A further data set has as its system THP-1 cells. The data set is described as follows: Cytotoxicity, Annexin V-FITC/PI dual staining by flow cytometry. The data set is classed as cell-based, human. To be noted: 30 and 100 µM, 24 h. As for the experimental part: The cytotoxicity of tetrahydroquinoline and quinoline esters 5a, 5b, 8a and 8b was evaluated at 30 and 100 µM by flow cytometry to assess cell survival using an Annexin V-FITC/PI dual staining assay. THP-1 cells (3 × 10^4 cells per well) were seeded in 24-well plates and allowed to grow overnight. The medium was then replaced and incubations with the different compounds or DMSO were performed during 24 h. Then, all cells were processed with the Annexin V-assay kit (ANXCFK7, Immunostep, Salamanca, Spain) according to the manufacturer's instruction. A Becton Dickinson LSR Fortessa cytometer (BD Biosciences, Franklin Lakes, NJ, USA) was used for samples, and cell analysis were performed using FACSDiva X20 software.
The potential cytotoxic effects of the compounds of the invention 5a, 5b, 8a, and 8b on the human macrophage cell line THP-1 were evaluated by flow cytometry to assess cell survival using an Annexin V-FITC/PI dual staining assay. The THP-1 cells were treated with concentrations of 30 and 100 µM for 24 h.
On the technique in general: In flow cytometry, cells or beads pass a laser one at a time.

For another data set, the system named is PDK4-(PPRE)3-Luc+. The data set is described as follows: Pdk4 transactivation assay (PDK4-(PPRE)3-Luc+ reporter in L929sA cells). The data set is classed as cell-based, mouse. To be noted: 10 µM, 6 h. As for the experimental part:
Transfection of L929sA cells stably expressing reporter genes was performed using the calcium phosphate precipitation protocol according to standard procedures with a 10-fold excess of the plasmid of interest in a pGL3-basic vector containing Luc+, a modified firefly luciferase gene (Promega Biotec, Madison, Wis,) USA. USA). The Pdk4 reporter was created using an enhancer site linked to the Pdk4 promoter containing three PPRE extracted from mouse liver genomic DNA. The aforementioned plasmid construct was then introduced into a pMet7 backbone, which had previously been cloned with a luciferase gene site, using Xhol and Sacl cut sites. The resulting construct was subjected to geneticin (neomycin) antibiotic selection to isolate individual clones. A stable cell line, designated Pdk4-Luc+, was subsequently established in L929sA cells, which also contained a constitutively expressed galactosidase reporter and a neomycin selection cassette.
Pyruvate Dehydrogenase Kinase 4 gene (Pdk4), a well-known target gene of PPARs, encodes a protein that regulates the phosphorylation and inactivation of the pyruvate dehydrogenase complex in response to physiological conditions. This response switches the energy source from glucose to fatty acids to maintain blood glucose levels to, thereby, increase lipid metabolism. Because it is a well-known target gene of PPARs, the effect of the 2- and 3-prenylated esters of tetrahydroquinolines and quinolines on a Pdk4 region reported to bind PPARα, was evaluated. The L929sA cells that were stably transfected with a PDK4-(PPRE)3-Luc+ reporter gene construct were used.

For another data set, the system named is ob/ob mice. The data set is described as follows: In vivo study in ob/ob mice, biochemical analysis of blood. To be noted: orally, 10 mg/kg/d, 15 days. As for the experimental part:
Animal studies were carried out in accordance with Directive 2010/63/EU for experimentation on animals. The handling of the animals and the experimental protocols were approved by the Animal Experimentation Ethics Committee of the University of Valencia (Protocol No. A1469445706311). Six-week-old male ob/ob mice (C57BL/6.Cg-Lepob/J) were supplied by Charles River Laboratories International (Wilmington, MA). Blood samples were collected from mice fasted for 6 hours to determine basal blood glucose levels. The animals, randomly divided into two groups (N ≈ 10-11 per group), were treated daily with vehicle (1% hydroxyethyl cellulose, Sigma-Aldrich) or with tetrahydroquinoline 5a at 10 mg/kg/day, for 15 days orally. After 15 days of treatment, and 6 h of fasting, the mice were anesthetized by inhalation of isoflurane and blood samples were collected in tubes with heparin or EDTA by intracardiac puncture. Plasma samples were obtained and stored at -80°C. Liver and epididymal white adipose tissue were removed and part of both organs were quickly frozen in liquid N2 for qPCR studies.
Plasma levels of total cholesterol and HDL-cholesterol (HDL-c) were determined by enzymatic processes using commercial kits: LabAssay™ Cholesterol (Wako Pure Chemicals Industries, Cape Charles, VA) and Mouse HDL-Cholesterol Assay Kit (Crystal Chem, Elk Grove Village, IL), respectively. Non-HDL cholesterol levels were calculated (total cholesterol - HDL-c). Fasting blood glucose levels were measured using a glucometer (Contour Next, Bayer HealthCare Pharmaceuticals LLC, Berlin, Germany), while insulin levels were determined using the commercial Mouse Insulin ELISA kit (Mercodia, Uppsala, Sweden). The HOMA-IR index was calculated using the following formula: fasting blood glucose (mmol/L) * fasting insulinemia (µU/mL) / 22.5.
Tetrahydroquinoline 5a administered for 15 days (orally, 10 mg/kg/d) to an obese and diabetic mouse model (ob/ob), improved lipid and carbohydrate parameters. Indeed, 5a decreased total cholesterol and non-HDL cholesterol levels, as well as insulin levels and the HOMA-IR index in the blood of oblob mice, compared to vehicle-treated mice (Figures 4A-4D).

Where [1] appears, read: compared to vehicle-treated mice.

Regarding `CCOC(=O)CC/C(C)=C/CCC1CCc2cc(OCc3ccccc3)ccc2N1C` (centres unmarked) [Compound 5a, Ethyl (E)-7-(6-(benzyloxy)-1-methyl-1,2,3,4-tetrahydroquinolin-2-yl)-4-methylhept-4-enoate], at hPPARα, the response was half-maximal at 3.6 µM (EC50). On hPPARα (COS-7, read-out: Efficacy (%) at 10 µmol/L PPARα), the Emax at 10 µM is 76%. In addition, the “cytotoxic effects (cell survival)” value in the data set with THP-1 cells was “No cytotoxic effects were observed”. The “transactivation of the PDK4-Luc+ indicator” value in the data set on PDK4-(PPRE)3-Luc+ (L929sA cells, compared to GW7647 at 1 µM) was “increased the transactivation of the PDK4-Luc+ indicator”. The “maximal transactivation response compared with GW7647” value in the data set on PDK4-(PPRE)3-Luc+ (GW7647 at 1 µM as positive control) is reported as “outperformed the maximal activity of the prior art compound GW7647”. In addition, in the data set on ob/ob mice, the “levels of hepatic transaminase ALT” value is reported as “did not increase” and the “levels of hepatic transaminase AST” value was “did not increase”. In addition, the HOMA-IR index entry with ob/ob mice (compared to vehicle, calculated from fasting glucose and insulin) is recorded as “decreased”. Moreover, the non-HDL cholesterol levels entry in the data set with ob/ob mice (compared to vehicle, total cholesterol - HDL-c) is “decreased”. In the data set with ob/ob mice (setting [1]), the insulin levels entry is recorded as “decreased” and the total cholesterol levels entry is reported as “decreased”.
